From PubChem BioAssay AID1963971 (Molecular Pharmacology Branch, DTP, NCI, 2024)

System: 953936-095-R-J2-PDC spheroids with HUVEC/MSC, viability
Experiment: Anticancer human tumor 953936-095-R-J2-PDC patient-derived cervical squamous cell carcinoma cell line growth inhibition [PI3K]
Conditions: for IC50: curve of first compound; for viability, T/C: stronger effect = lower value
Procedure, shortened: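 Agents were dosed from a top concentration near clinical Cmax (otherwise 10 microM) in half-log decrements, alone or combined with PI3K inhibitors. The spheroids contain tumor cells plus endothelial (HUVEC) and MSC stroma; viability is measured.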

[1] = second compound 0.00316 µM, first compound 0.0316 µM
[2] = second compound 0.00316 µM, first compound 0.1 µM
[3] = second compound 0.00316 µM, first compound 0.316 µM
[4] = second compound 0.00316 µM, first compound 1 µM
[5] = second compound 0.00316 µM, first compound 3.16 µM
[6] = second compound 0.00316 µM, first compound 10 µM
[7] = second compound 0.01 µM, first compound 0.0316 µM
[8] = second compound 0.01 µM, first compound 0.1 µM
[9] = second compound 0.01 µM, first compound 0.316 µM
[10] = second compound 0.01 µM, first compound 1 µM
[11] = second compound 0.01 µM, first compound 3.16 µM
[12] = second compound 0.01 µM, first compound 10 µM
[13] = second compound 0.0316 µM, first compound 0.0316 µM
[14] = second compound 0.0316 µM, first compound 0.1 µM
[15] = second compound 0.0316 µM, first compound 0.316 µM
[16] = second compound 0.0316 µM, first compound 1 µM
[17] = second compound 0.0316 µM, first compound 3.16 µM
[18] = second compound 0.0316 µM, first compound 10 µM
[19] = second compound 0.1 µM, first compound 0.0316 µM
[20] = second compound 0.1 µM, first compound 0.1 µM
[21] = second compound 0.1 µM, first compound 0.316 µM
[22] = second compound 0.1 µM, first compound 1 µM
[23] = second compound 0.1 µM, first compound 3.16 µM
[24] = second compound 0.1 µM, first compound 10 µM
[25] = second compound 0.316 µM, first compound 0.0316 µM
[26] = second compound 0.316 µM, first compound 0.1 µM
[27] = second compound 0.316 µM, first compound 0.316 µM
[28] = second compound 0.316 µM, first compound 1 µM
[29] = second compound 0.316 µM, first compound 3.16 µM
[30] = second compound 0.316 µM, first compound 10 µM
[31] = second compound 1 µM, first compound 0.0316 µM
[32] = second compound 1 µM, first compound 0.1 µM
[33] = second compound 1 µM, first compound 0.316 µM
[34] = second compound 1 µM, first compound 1 µM
[35] = second compound 1 µM, first compound 3.16 µM
[36] = second compound 1 µM, first compound 10 µM
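Note: spheroids exposed to compounds for seven days before read-out.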

With `CC(Cn1ccc(-c2ccc(C#N)c(Cl)c2)n1)NC(=O)c1cc(C(C)O)[nH]n1` (centres undefined) + COc1c(OCCCN2CCOCC2)ccc2c3n(c(=NC(=O)c4cnc(N)nc4)nc12)CCN3 the IC50 (second compound 0.00316 µM) was > 10000 nM, the IC50 (second compound 0.01 µM) was > 10000 nM and the IC50 (second compound 0.0316 µM) was < 31.6 nM. For the same molecule, the IC50 (second compound 0.1 µM) was < 31.6 nM, the IC50 (second compound 0.316 µM) was < 31.6 nM and the IC50 (second compound 1 µM) was < 31.6 nM. It also gave a viability, T/C [1] of 80.3%, a viability, T/C [2] of 88.3% and a viability, T/C [3] of 84.1%. For the same molecule, the viability, T/C [4] was 101%, the viability, T/C [5] was 90.7% and the viability, T/C [6] was 89.2%. The viability, T/C [7] was 68.8%, the viability, T/C [8] was 71.6% and the viability, T/C [9] was 76.3%. The viability, T/C [10] was 71.1%, the viability, T/C [11] was 78.9% and the viability, T/C [12] was 70.2%. It also gave a viability, T/C [13] of 43.5%, a viability, T/C [14] of 40.9% and a viability, T/C [15] of 42.6%. For the same molecule, the viability, T/C [16] was 39.8%, the viability, T/C [17] was 46.2% and the viability, T/C [18] was 41.1%. It also gave a viability, T/C [19] of 19.4%, a viability, T/C [20] of 19.4% and a viability, T/C [21] of 20.7%. It also gave a viability, T/C [22] of 20.3%, a viability, T/C [23] of 21.8% and a viability, T/C [24] of 19.8%. It also gave a viability, T/C [25] of 7.44%, a viability, T/C [26] of 6.25% and a viability, T/C [27] of 7.53%. It also gave a viability, T/C [28] of 6.55%, a viability, T/C [29] of 7.13% and a viability, T/C [30] of 8.7%. The viability, T/C [31] was 1.6%, the viability, T/C [32] was 1.39% and the viability, T/C [33] was 2%. It also gave a viability, T/C [34] of 1.92%, a viability, T/C [35] of 2.08% and a viability, T/C [36] of 1.97%.

`CC1(C)CCC(Nc2ncc(C(F)(F)F)c(-c3c[nH]c4c(P(C)(C)=O)c(C#N)ccc34)n2)CN1` (centres undefined) + COc1c(OCCCN2CCOCC2)ccc2c3n(c(=NC(=O)c4cnc(N)nc4)nc12)CCN3 was tested, and the IC50 (second compound 0.00316 µM) was 31.6 nM, the IC50 (second compound 0.01 µM) was < 31.6 nM and the IC50 (second compound 0.0316 µM) was < 31.6 nM. For the same molecule, the IC50 (second compound 0.1 µM) was < 31.6 nM, the IC50 (second compound 0.316 µM) was < 31.6 nM and the IC50 (second compound 1 µM) was < 31.6 nM. It also gave a viability, T/C [1] of 45.6%, a viability, T/C [2] of 47% and a viability, T/C [3] of 53.5%. It also gave a viability, T/C [4] of 47.1%, a viability, T/C [5] of 52% and a viability, T/C [6] of 5.49%. The viability, T/C [7] was 46.2%, the viability, T/C [8] was 42.2% and the viability, T/C [9] was 49.5%. It also gave a viability, T/C [10] of 35.5%, a viability, T/C [11] of 44% and a viability, T/C [12] of 6.01%. The viability, T/C [13] was 26.9%, the viability, T/C [14] was 22.6% and the viability, T/C [15] was 25.4%. It also gave a viability, T/C [16] of 25.5%, a viability, T/C [17] of 24.4% and a viability, T/C [18] of 1.19%. The viability, T/C [19] was 11.9%, the viability, T/C [20] was 16.5% and the viability, T/C [21] was 12.2%. It also gave a viability, T/C [22] of 11.8%, a viability, T/C [23] of 8.68% and a viability, T/C [24] of 0.34%. For the same molecule, the viability, T/C [25] was 5.51%, the viability, T/C [26] was 5.07% and the viability, T/C [27] was 3.84%. For the same molecule, the viability, T/C [28] was 4.98%, the viability, T/C [29] was 3.94% and the viability, T/C [30] was 0.16%. It also gave a viability, T/C [31] of 1.33%, a viability, T/C [32] of 1.62% and a viability, T/C [33] of 1.12%. It also gave a viability, T/C [34] of 1.34%, a viability, T/C [35] of 1.37% and a viability, T/C [36] of 0.31%.
